# Source: paper PMC10863392
# Assay: Intramolecular Friedel-Crafts arylation (C(vinyl)-C(aryl) bond) of vinyl cation from vinyl tosylate; [Li]+[B(C6F5)4]- 10 mol%, LiH 5 equiv
# Details: 1,2-dichlorobenzene, 16.7 mM, 140.0 °C
smiles,measurement,setting,value
Cc1ccc(S(=O)(=O)N2CCc3c(Cl)cccc3C(=C3CCCCC3)c3ccccc32)cc1 [1 -> 2],"ring closure, isolated yield","from Cc1ccc(S(=O)(=O)OC(=C2CCCCC2)c2ccccc2N(CCc2ccccc2Cl)S(=O)(=O)c2ccc(C)cc2)cc1, 8-membered ring, 18.0 h",73%
COc1ccc(CC2Cc3cc(OC)ccc3C(=C(C)C)c3ccccc3S2)cc1 (stereo not drawn) [28 -> 29a (NMR yield)],"ring closure, isolated yield","from COc1ccc(CC(Cc2cccc(OC)c2)Sc2ccccc2C(OS(=O)(=O)c2ccc(C)cc2)=C(C)C)cc1, 8-membered ring",25%
CC(C)=C1c2ccccc2CCCN(S(=O)(=O)c2ccc(C)cc2)c2ccccc21 [SI-11 -> 6],"ring closure, isolated yield","from CC(C)=C(OS(=O)(=O)c1ccc(C)cc1)c1ccccc1N(CCCc1ccccc1)S(=O)(=O)c1ccc(C)cc1, 9-membered ring, 36.0 h",82%
CC(C)=C1c2ccccc2CCSc2ccccc21 [SI-14 -> 8],"ring closure, isolated yield","from CC(C)=C(OS(=O)(=O)c1ccc(C)cc1)c1ccccc1SCCc1ccccc1, 8-membered ring",46%
CC(C)=C1c2ccccc2CCN(S(=O)(=O)c2ccc(C)cc2)c2ccccc21 [SI-16 -> 5],"ring closure, isolated yield","from CC(C)=C(OS(=O)(=O)c1ccc(C)cc1)c1ccccc1N(CCc1ccccc1)S(=O)(=O)c1ccc(C)cc1, 8-membered ring, 36.0 h",56%
CC(C)=C1c2ccccc2CCCc2ccccc21 [SI-20 -> 9],"ring closure, isolated yield","from CC(C)=C(OS(=O)(=O)c1ccc(C)cc1)c1ccccc1CCCc1ccccc1, 8-membered ring",81%
Cc1ccc(S(=O)(=O)N2CCc3ccc(N(C)C)cc3C(=C3CCCCC3)c3ccccc32)cc1 [SI-24 -> 11],"ring closure, isolated yield","from Cc1ccc(S(=O)(=O)OC(=C2CCCCC2)c2ccccc2N(CCc2ccc(N(C)C)cc2)S(=O)(=O)c2ccc(C)cc2)cc1, 8-membered ring",62%
COc1ccc2c(c1)C(=C1CCCCC1)c1ccccc1N(S(=O)(=O)c1ccc(C)cc1)CC2 [SI-27 -> 12],"ring closure, isolated yield","from COc1ccc(CCN(c2ccccc2C(OS(=O)(=O)c2ccc(C)cc2)=C2CCCCC2)S(=O)(=O)c2ccc(C)cc2)cc1, 8-membered ring",76%
CC(C)=C1c2cc(O[Si](C)(C)C(C)(C)C)ccc2CCN(S(=O)(=O)c2ccc(C)cc2)c2ccccc21 [SI-33 -> 13],"ring closure, isolated yield","from CC(C)=C(OS(=O)(=O)c1ccc(C)cc1)c1ccccc1N(CCc1ccc(O[Si](C)(C)C(C)(C)C)cc1)S(=O)(=O)c1ccc(C)cc1, 8-membered ring",79%
Cc1ccc(S(=O)(=O)N2CCc3ccc(Br)cc3C(=C3CCCC3)c3ccccc32)cc1 [SI-36 -> 15],"ring closure, isolated yield","from Cc1ccc(S(=O)(=O)OC(=C2CCCC2)c2ccccc2N(CCc2ccc(Br)cc2)S(=O)(=O)c2ccc(C)cc2)cc1, 8-membered ring",79%
Cc1ccc(S(=O)(=O)N2CCc3sccc3C(=C3CCCCC3)c3ccccc32)cc1 [SI-38 -> 18],"ring closure, isolated yield","from Cc1ccc(S(=O)(=O)OC(=C2CCCCC2)c2ccccc2N(CCc2cccs2)S(=O)(=O)c2ccc(C)cc2)cc1, 8-membered ring, 20.0 h",73%
CC(C)=C1c2ccccc2CCN(S(=O)(=O)c2ccc(C)cc2)c2sc3c(c21)CCCC3 [SI-42 -> 19 (120 C)],"ring closure, isolated yield","from CC(C)=C(OS(=O)(=O)c1ccc(C)cc1)c1c(N(CCc2ccccc2)S(=O)(=O)c2ccc(C)cc2)sc2c1CCCC2, 8-membered ring, 20.0 h",85%
CC(C)=C1c2ccccc2CCCOc2ccccc21 [SI-45 -> 10],"ring closure, isolated yield","from CC(C)=C(OS(=O)(=O)c1ccc(C)cc1)c1ccccc1CCCOc1ccccc1, 9-membered ring, 48.0 h",65%
COc1ccc2c(c1)N(S(=O)(=O)c1ccc(C)cc1)CCc1ccccc1C2=C(C)C [SI-46 -> 16],"ring closure, isolated yield","from COc1ccc(C(OS(=O)(=O)c2ccc(C)cc2)=C(C)C)c(N(CCc2ccccc2)S(=O)(=O)c2ccc(C)cc2)c1, 8-membered ring, 24.0 h",78%
Cc1ccc(S(=O)(=O)N2CCCCc3ccccc3C(=C3CCCCC3)c3ccccc32)cc1 [precursor of 7 (n.d.)],"ring closure, isolated yield","from Cc1ccc(S(=O)(=O)OC(=C2CCCCC2)c2ccccc2N(CCCCc2ccccc2)S(=O)(=O)c2ccc(C)cc2)cc1, 10-membered ring",0%
Cc1ccc(S(=O)(=O)N2CCCc3ccc(C(F)(F)F)cc3C(=C3CCCCC3)c3ccccc32)cc1 [precursor of 14 (n.d.)],"ring closure, isolated yield","from Cc1ccc(S(=O)(=O)OC(=C2CCCCC2)c2ccccc2N(CCCc2ccc(C(F)(F)F)cc2)S(=O)(=O)c2ccc(C)cc2)cc1, 9-membered ring",0%
"CC(C)=C1c2ccccc2CCN(S(=O)(=O)c2ccc(C)cc2)c2cc(C(F)(F)F)ccc21 [precursor of 17 (n.d., 160 C)]","ring closure, isolated yield","from CC(C)=C(OS(=O)(=O)c1ccc(C)cc1)c1ccc(C(F)(F)F)cc1N(CCc1ccccc1)S(=O)(=O)c1ccc(C)cc1, 8-membered ring",0%
CC1=C(c2ccccc2)c2ccccc2CCCC1 [precursor of 20 (n.d.)],"ring closure, isolated yield","from CC(CCCCc1ccccc1)=C(OS(=O)(=O)c1ccc(C)cc1)c1ccccc1, 8-membered ring",0%
